Test results as given in paper PMC12559310, “Tumor-targeted top1 inhibitor delivery with optimized parp inhibition in advanced solid tumors: a phase i trial of gapped scheduling” (Nature Communications, 2025).
Read-outs that look alike come from different tables or passages of the source.

How the values were obtained:
DNA damage = test system: DNA damage; design: method as in earlier work; details: preclinical studies, transient, declining thereafter; cited from earlier work
[1] = test system: patients with advanced solid tumors; experiment: Phase I dose escalation (3 + 3 design): DLTs and MTD/RP2D of CRLX101 plus olaparib; type: in vivo, human; details: Olaparib 250 tab bid d3-13, 17-26 combined with CRLX101 12 mg/m2; % of single-agent MTD; Current study
From the text: Olaparib tablets were given at escalating doses across cohorts (as shown in Fig. 1), administered twice daily on days 3–13 and 17–26 of the treatment cycle.
A standard 3 + 3 design was used for dose escalation. […] DLTs were based on toxicities observed during the first cycle. […] Study treatment was discontinued if there was a > 3-week delay in reinstitution of treatment due to drug-related toxicity during a cycle. Dose reductions were allowed for toxicities. A maximum of two dose reductions were allowed. Dose re-escalation was not allowed.

[2] = Olaparib peak plasma concentration (2 h post-oral administration); type: in vivo, human
Protocol: Approximately 4 mL of blood was collected into a sodium heparin tube (BD Biosciences), immediately processed into plasma before storage in cryovials at − 80 °C. […] Total CPT, polymer-unconjugated CPT, and olaparib plasma concentrations were measured using previously published assays[53],[54]. Polymer-conjugated CPT plasma concentrations were obtained via subtracting the polymer-unconjugated concentration from the total CPT concentration.
First dose pharmacokinetic parameters were calculated using noncompartmental methods (Phoenix WinNonlin 8.0, Certara Pharsight Corp, Cary, NC). Any plasma concentration measured below the LLOQ was excluded from analyses. The maximum plasma concentration (CMAX) and time to CMAX (TMAX) were recorded as observed values. The area under the plasma concentration vs time curve to the last observed time point (AUCLAST) was calculated using the Linear Up Log Down trapezoidal rule. The elimination rate (kEL) was calculated as the slope of the log-transformed concentrations vs terminal time points. AUC extrapolated to time infinity (AUCINF) was calculated as AUCLAST + CLAST/kEL, where CLAST is the concentration at the last observed time point. Half-life (t1/2) was calculated as ln2/kEL. Apparent oral clearance (CL/F) was calculated as dose/AUCINF; volume of distribution at steady-state (Vss) was calculated via the product of mean residence time extrapolated to infinity (MRTINF) and […]. Pharmacokinetic parameters were calculated for each individual and summarized using the arithmetic mean ± standard deviation (SD).

SCLC cell lines = test system: SCLC cell lines; design: method as in protocol [5]; details: pre-clinical models of SCLC; ref protocol [5]; cited from earlier work
CYP3A4 [3] = details: in vitro; cited from earlier work
CYP3A4 [4] = details: in vitro; cited from earlier work; remark: listed apart in the source
CYP1A2 = details: in vitro; cited from earlier work
CYP2B6 = details: in vitro; cited from earlier work
CYP3A4 [5] = details: in vitro; cited from earlier work; remark: listed apart in the source
P-gp = details: in vitro; cited from earlier work
OATP1B1 = details: in vitro; cited from earlier work
OCT1 = details: in vitro; cited from earlier work
OCT2 = details: in vitro; cited from earlier work
OAT3 = details: in vitro; cited from earlier work
MATE1 = details: in vitro; cited from earlier work
MATE2K = details: in vitro; cited from earlier work
BRCP = details: in vitro; cited from earlier work
anaesthetized dog = test system: anaesthetized dog; design: method as in olaparib Investigator’s Brochure; details: at the doses studied, ref olaparib Investigator’s Brochure; cited from earlier work
rat = test system: rat; design: method as in olaparib Investigator’s Brochure; details: rat Irwin test, at the doses studied; ref olaparib Investigator’s Brochure; cited from earlier work
target organ of toxicity = test system: target organ of toxicity; design: method as in olaparib Investigator’s Brochure; details: toxicology studies; ref olaparib Investigator’s Brochure; cited from earlier work
patients = details: tablet BID; protocol rationale; cited from earlier work
[6] = test system: patients with solid tumors; details: Inv New Drugs, cited from earlier work

## CC[C@@]1(O)C(=O)OCc2c1cc1n(c2=O)Cc2cc3ccccc3nc2-1 [camptothecin, 20(S)-camptothecin]
DNA damage
  time of peak of camptothecin-induced DNA damage: 24 to 48 h

## O=C(c1cc(Cc2n[nH]c(=O)c3ccccc23)ccc1F)N1CCN(C(=O)C2CC2)CC1 [olaparib]
[1]
  PARPi % of MTD: 83%
[2]; 100-300 mg, 2 hours post-dose
  dose dependence of peak concentrations: increased proportionally with the dose
[2]; Olaparib dose 100 mg, N 2, 2 h post-dose, mean ± SD
  CMAX: 2843.1 ± 947.62 ng/mL
[2]; Olaparib dose 150 mg, N 5, 2 h post-dose, mean ± SD
  CMAX: 2359.8 ± 1548.0 ng/mL
[2]; Olaparib dose 200 mg, N 3, 2 h post-dose, mean ± SD
  CMAX: 4496.7 ± 2375.2 ng/mL
[2]; Olaparib dose 300 mg, N 6, 2 h post-dose, mean ± SD
  CMAX: 5594.6 ± 4132.4 ng/mL
[2]; human, plasma, oral, Olaparib dose 250 mg, N 7, 2 h post-dose, mean ± SD
  Cmax at 2 h: 6340 ± 4870 ng/mL
SCLC cell lines
  single agent activity: striking single agent activity in a majority of SCLC cell lines tested
CYP3A4 [3]
  CYP3A4 inhibition: inhibits CYP3A4 in vitro
CYP3A4 [4]
  principal enzyme forming the 3 main metabolites: CYP3A4
CYP1A2
  CYP1A2 induction: Induction
CYP2B6
  CYP2B6 induction: Induction
CYP3A4 [5]
  CYP3A4 induction: Induction
P-gp
  P-gp inhibition: inhibitor
OATP1B1
  OATP1B1 inhibition: inhibitor
OCT1
  OCT1 inhibition: inhibitor
OCT2
  OCT2 inhibition: inhibitor
OAT3
  OAT3 inhibition: inhibitor
MATE1
  MATE1 inhibition: inhibitor
MATE2K
  MATE2K inhibition: inhibitor
BRCP
  BRCP inhibition: weak inhibitor
Anaesthetized dog
  effects on cardiovascular or respiratory parameters: no noticeable
rat
  behavioural, autonomic or motor effects: no noticeable
Target organ of toxicity
  target organ of toxicity: bone marrow
patients
  single-agent maximum tolerated dose (MTD): 300 mg
[6]; Olaparib 50 mg bid d1-5 with Irinotecan 125 mg/m2 q2w, ref Chen, 2016
  PARPi % of MTD: 12%
[6]; Olaparib 50 mg qd d1-21 with Irinotecan 200 mg/m2 q3w, ref Chen, 2016
  PARPi % of MTD: 6%
[6]; Olaparib 100 mg bid d1-21 with Topotecan 1 mg/m2/d1-3, ref Samol, 2012
  PARPi % of MTD: 25%
